Columns and labels:
[1] = at 30° C. and 1 Hz; cited from earlier work
[2] = Water sorption and solubility (ISO 4049); assay type: physicochemical; details: for water sorption: one week in water
Method: The same samples used in the polymerization kinetics test were stored dry at room temperature for 24 hs, then used for the water sorption (WS) and solubility (SL) test, according to ISO 4049 (REF). The initial mass (M1) was recorded and the volume calculated following the equation: V=h×πr^2 where h (mm) is the sample height and r (mm) is the sample radius.
Each sample was placed in a tight-close glass vial with 5 glass beads on the bottom to ensure the whole surface of the sample was exposed to water, and then the vial was filled by 5 ml of double-distilled water and kept closed for one week. The samples were then removed from water, patted dry and weighed again (M2) and placed in a desiccator until mass stabilization (M3) was observed. Water sorption (WS) and solubility (SL) were calculated according to the equations:
[formula] and the results were converted into […], where V is the volume of the specimen. Dentin Microtensile Bond Strength
The same samples used in the polymerization kinetics were tested for water sorption and solubility, according to [25]. Briefly, the mass of the disks was determined before (m1) and after immersion in distilled water for one week (m2). The disks were then stored in a desiccator until the mass stabilized (m3), which took around one week. Water sorption (WS) and solubility (SL) were calculated using the following equations:
[formula] where V is the volume of the specimen. 2.4 Microtensile bond strength

[3] = Monomer degradation in low pH environment (1H NMR); details: neat monomer, 30 days
[4] = Neat monomer incubation in water, remaining monomer by HPLC; details: neat compound incubated in water
Method: (§1) Monomers were prepared to a concentration of 0.15 mM for water and CE/PCE incubations and incubated at 72 hours at 37° C.
(§2) Degradation from CE and PCE was monitored via high performance liquid chromatography (HPLC) and measured via initial and post incubation monomer area difference.
(§3) This was calculated in the decrease in absorbance area measured by HPLC at 227 nm wavelength. Degradation was further verified by the detection of methacrylic acid.

[5] = target: T1, matrix metalloproteinase 2 (MMP-2) (Homo sapiens, UniProt P08253); experiment: MMP-2 incubation, fluorometric assay; assay type: biochemical; details: 0.02 mM monomer, 24 hours at 37° C., fluorescence Ex/Em=490/525 nm
T1 sequence (P08253 110-660): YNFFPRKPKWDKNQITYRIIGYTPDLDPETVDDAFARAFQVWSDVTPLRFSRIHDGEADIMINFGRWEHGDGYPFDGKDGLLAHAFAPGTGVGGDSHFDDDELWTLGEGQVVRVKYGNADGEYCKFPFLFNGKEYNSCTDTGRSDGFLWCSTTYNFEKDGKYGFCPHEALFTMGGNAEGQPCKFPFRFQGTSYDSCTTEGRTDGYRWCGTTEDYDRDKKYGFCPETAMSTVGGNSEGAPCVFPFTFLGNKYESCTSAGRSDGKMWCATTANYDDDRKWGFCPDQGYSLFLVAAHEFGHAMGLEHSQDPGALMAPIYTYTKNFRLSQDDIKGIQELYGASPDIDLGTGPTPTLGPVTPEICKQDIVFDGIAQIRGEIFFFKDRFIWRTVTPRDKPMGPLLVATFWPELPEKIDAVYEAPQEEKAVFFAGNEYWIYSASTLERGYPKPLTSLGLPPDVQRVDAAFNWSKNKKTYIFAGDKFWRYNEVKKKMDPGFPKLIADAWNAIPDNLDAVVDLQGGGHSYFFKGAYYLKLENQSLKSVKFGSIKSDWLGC
Method: MMP-2 incubation was prepared at 0.02 mM monomer concentration and incubated at 24 hours at 37° C. and degradation from MMP was measured via a fluorometric assay utilizing a plate reader.
BB94 is a commercial, known inhibitor of MMP-2. Plate reader fluorescence was set at Ex/Em=490/525 nm. Lower fluorescence signal indicates enzyme inhibition. Initial study indicate HEMA and HEMAM inhibition of MMP-2.

[6] = system: cholinesterase (CE) and pseudocholinesterase (PCE); experiment: Neat monomer incubation with cholinesterase / pseudocholinesterase, HPLC; details: neat compound in the presence of cholinesterase
Method: as §1, §2, §3

Structure (SMILES)	water sorption ([2]; UDMA mixtures) [μg/mm3]	degradation under aqueous conditions [4]	degraded monomers under enzymatic conditions [6] [%]	further results
C=C(C)C(=O)OCC(O)COc1ccc(C(C)(C)c2ccc(OCC(O)COC(=O)C(=C)C)cc2)cc1 (stereo not shown) [BisGMA, Bisphenol A glycerolate dimethacrylate]	–	–	–	initial viscosity [1]: 1369 Pa·s
C=CC(=O)N(C)C [DMAM, N.N-Dimethylacrylamide]	224.7	–	–	solubility ([2]; BisGMA co-polymerization): 52.3 μg/mm3; solubility ([2]; UDMA co-polymerization): 44.3 μg/mm3
C=CC(=O)N(C)CCO [HEM, N-(2-hydroxyethyl)-N-methylacrylamide]	203.5	–	–	water sorption ([2]; BisGMA co-polymerizations): 38.7 μg/mm3
C=C(C)C(=O)OCCO [HEMA, 2-Hydroxyethyl methacrylate]	102.8	8%	52	degradation ([3]; pH 1, 37° C.): 69.0 (2.3) %; degradation ([3]; pH 2, 37° C.): 10.5 (0.7) %; inhibition of MMP-2 [5]: inhibition
C=C(C)C(=O)NCCO [HEMAM, N-Hydroxyethyl methacrylamide]	–	–	–	degradation ([3]; pH 1, 37° C.): 6.0 (0) %; degradation ([3]; pH 2, 37° C.): did not show any significant amount of degradation products; inhibition of MMP-2 [5]: inhibition
C=C(C)C(=O)NC(CC)CO (stereo not shown) [Monomer 2EM, N-(1-hydroxybutan-2-yl)methacrylamide]	102.7	virtually no degradation	22	–
C=C(C)C(=O)NC(C)(C)CO [Monomer 2dMM, N-(1-hydroxy-2-methylpropan-2-yl)methacrylamide]	102.7	virtually no degradation	8	–
C=C(C)C(=O)OCCOC(=O)NCCC(C)CC(C)(C)CNC(=O)OCCOC(=O)C(=C)C (stereo not shown) [UDMA, urethane dimethacrylate]	–	–	–	initial viscosity [1]: 28 Pa·s
